Measured values taken from article PMC6804193, “Extending the Inhibition Profiles of Coumarin-Based Compounds Against Human Carbonic Anhydrases: Synthesis, Biological, and In Silico Evaluation” (Molecules, 2019).
Where two headings read alike, the source gives them in different places. Each block holds one compound with its values, some of them ahead of it.

Experiments:
Assay in all cases: stopped-flow CO2 hydrase assay
Type in all cases: biochemical
[1] = biological target: T1, hCA II (Homo sapiens, UniProt P00918)
T1 construct: gene CA2; recombinant, obtained in-house; cytosolic isoform
Description: stopped-flow CO2 hydrase assay on hCA II

[2] = biological target: T2, hCA I (Homo sapiens, UniProt P00915)
T2 construct: gene CA1; recombinant, obtained in-house; cytosolic isoform
Description: stopped-flow CO2 hydrase assay on hCA I

[3] = biological target: T3, hCA IX (Homo sapiens, UniProt Q16790)
T3 construct: gene CA9; recombinant, obtained in-house
Description: stopped-flow CO2 hydrase assay on hCA IX

[4] = biological target: T4, hCA XII (Homo sapiens, UniProt O43570); conditions: read-out: KI^* (nM) / hCA II
T4 construct: gene CA12; recombinant, obtained in-house

[5] = biological target: T4, hCA XII; conditions: read-out: KI^* (nM) / hCAXII
Description: stopped-flow CO2 hydrase assay on hCA XII

[6] = CO2 […], […] Hepes pH […] Na2SO4, […] h preincubation at room temperature (prodrug inhibitors)

T2 sequence (P00915 2-261): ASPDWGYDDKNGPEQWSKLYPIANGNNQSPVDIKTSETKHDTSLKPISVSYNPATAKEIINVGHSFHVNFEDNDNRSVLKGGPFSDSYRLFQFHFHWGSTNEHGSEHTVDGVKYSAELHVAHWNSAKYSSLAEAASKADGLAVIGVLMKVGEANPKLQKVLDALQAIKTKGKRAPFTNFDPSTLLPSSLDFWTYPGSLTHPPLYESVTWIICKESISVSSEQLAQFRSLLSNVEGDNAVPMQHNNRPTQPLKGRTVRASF
T4 sequence (O43570 25-354): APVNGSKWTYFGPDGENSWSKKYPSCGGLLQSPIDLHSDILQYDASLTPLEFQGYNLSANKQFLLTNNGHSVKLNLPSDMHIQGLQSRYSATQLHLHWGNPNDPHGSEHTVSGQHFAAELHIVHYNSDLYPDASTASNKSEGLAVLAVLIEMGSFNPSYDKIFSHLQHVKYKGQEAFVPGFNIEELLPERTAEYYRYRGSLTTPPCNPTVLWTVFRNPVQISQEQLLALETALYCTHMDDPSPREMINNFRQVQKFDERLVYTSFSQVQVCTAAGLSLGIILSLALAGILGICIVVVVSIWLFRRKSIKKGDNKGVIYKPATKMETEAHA

Structure (SMILES): COc1ccc(C2CC(=O)Oc3ccc(C(C)=O)c(O)c32)cc1OCCc1ccc2c(c1)CCO2 (racemic) [compound 5, 6-Acetyl-4-(3-(2-(2,3-dihydrobenzofuran-5-yl)ethoxy)-4-methoxyphenyl)-5-hydroxychroman-2-one]
Ki [1]: > 10000 nM
Ki [2]: > 10000 nM
Ki [3]: 172 nM
Ki [4]: > 10000 nM

Structure (SMILES): COc1ccc2occ(C3CC(=O)Oc4ccc(C(C)=O)c(O)c43)c(=O)c2c1 (racemic) [compound 8, 3-(6-Acetyl-5-hydroxy-2-oxochroman-4-yl)-6-methoxy-4H-chromen-4-one]
Ki [1]: > 10000 nM
Ki [2]: > 10000 nM
Ki [3]: 175 nM
Ki [4]: > 10000 nM

Structure (SMILES): COc1cc(C2CC(=O)Oc3ccc(C(C)=O)c(O)c32)ccc1O (racemic) [compound 6, 6-Acetyl-5-hydroxy-4-(4-hydroxy-3-methoxyphenyl)chroman-2-one]
Ki [1]: > 10000 nM
Ki [2]: > 10000 nM
Ki [3]: 189 nM
Ki [4]: > 10000 nM

Structure (SMILES): Cc1c(O)c(CN(C)C)cc2c(-c3cc4ccccc4oc3=O)cc(=O)oc12 [compound 2, 6’-((Dimethylamino)methyl)-7’-hydroxy-8’-methyl-2H,2’H-[3,4’-bichromene]-2,2’-dione]
Ki [1]: > 10000 nM
Ki [2]: > 10000 nM
Ki [3]: 85.6 nM
Ki [4]: > 10000 nM

Structure (SMILES): CC(=O)c1ccc2c(c1O)C(c1ccccc1OCc1ccccn1)CC(=O)O2 (racemic) [compound 7, 6-Acetyl-5-hydroxy-4-(2-(pyridin-2-ylmethoxy)phenyl)chroman-2-one]
Ki [1]: > 10000 nM
Ki [2]: > 10000 nM
Ki [3]: 139 nM
Ki [4]: > 10000 nM

Structure (SMILES): CCOC(=O)CC(C1=Cc2ccccc2OC1)c1oc(CO)cc(=O)c1O (stereo not drawn) [compound 4, Ethyl 3-(2H-chromen-3-yl)-3-(3-hydroxy-6-(hydroxymethyl)-4-oxo-4H-pyran-2-yl) propanoate]
Ki [5]: 467 nM
Ki [1]: > 10000 nM
Ki [2]: > 10000 nM
Ki [3]: 243 nM

Structure (SMILES): CCCc1cc2c(=O)c(-c3ccc4c(c3)OCCO4)coc2cc1OCc1cc(=O)oc2cc(C)cc(C)c12 [compound 9, coumarin 9]
Ki [1]: > 10000 nM
Ki [2]: > 10000 nM
Ki [3]: 171 nM
Ki [4]: > 10000 nM

Structure (SMILES): O=C(Nc1ccc2oc(=O)ccc2c1)[C@@H]1CSC2c3ccccc3C(=O)N21 (stereo partly drawn) [compound 11, coumarin 11]
Ki [5]: 591 nM
Ki [1]: > 10000 nM
Ki [2]: > 10000 nM
Ki [3]: 9.4 nM

The remaining lines, values ahead:

Ki [1]: > 10000 nM
Ki [2]: > 10000 nM
Ki [3]: 133 nM
Ki [4]: > 10000 nM
Structure (SMILES): O=c1cc(-c2cc3ccc(O)cc3oc2=O)c2ccc(O)c(O)c2o1 [compound 3, 7,7’,8’-Trihydroxy-2H,2’H-[3,4’-bichromene]-2,2’-dione]

Ki [5]: 604 nM
Ki [1]: > 10000 nM
Ki [2]: > 10000 nM
Ki [3]: 25.7 nM
Structure (SMILES): Cc1cc(=O)oc2c(C)c(O)c(C(=O)/C=C/N(C)C)cc12 [compound 10, coumarin 10]

Ki [5]: 432 nM
Ki [1]: > 10000 nM
Ki [2]: > 10000 nM
Ki [3]: 241 nM
Structure (SMILES): O=C(NN1C(=O)/C(=C/C2=Cc3ccccc3OC2)SC1=S)c1cccnc1 [compound 12, 2H-chromene 12]

Ki [5, 6]: 558 nM
Ki [1, 6]: > 10000 nM
Ki [2, 6]: > 10000 nM
Ki [3, 6]: 49.3 nM
Structure (SMILES): CC(=NO)c1c(OCc2ccc(Cl)cc2)ccc2c(C)cc(=O)oc12 [compound 1, 7-((4-Chlorobenzyl)oxy)-8-(1-(hydroxyimino)ethyl)-4-methyl-2H-chromen-2-one]
